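Protocol summary: plate cells (96-well), add compound at 5 concentrations, incubate 48 h, interpolate endpoints linearly. Abbreviation: GI50, concentration required for 50% inhibition of growth.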 Active and inactive are the calls of the source. No stated cut-off is given here; in the data, active = GI50 up to about 1.1 µM and inactive = higher.
Assays:
Test in all cases: NCI-60 cell line screen, 48 h
A549 = test system: A549
CAKI-1 = test system: CAKI-1
CCRF-CEM = test system: CCRF-CEM
HT-29 = test system: HT-29
IGROV-1 = test system: IGROV-1
K562 = test system: K562
LOX IMVI = test system: LOX IMVI
MDA-N = test system: MDA-N
OVCAR-4 = test system: OVCAR-4
OVCAR-5 = test system: OVCAR-5
OVCAR-8 = test system: OVCAR-8
RPMI-8226 = test system: RPMI-8226
RXF 393 = test system: RXF 393
SF-539 = test system: SF-539
SK-MEL-28 = test system: SK-MEL-28
SK-OV-3 = test system: SK-OV-3
SNB-19 = test system: SNB-19
SR = test system: SR
T47D = test system: T47D
UACC-257 = test system: UACC-257

Structure (SMILES) | GI50 (A549) | GI50 (CAKI-1) | GI50 (CCRF-CEM) | GI50 (HT-29) | GI50 (IGROV-1) | GI50 (K562) | GI50 (LOX IMVI) | GI50 (MDA-N) | GI50 (OVCAR-4) | GI50 (OVCAR-5) | GI50 (OVCAR-8) | GI50 (RPMI-8226) | GI50 (RXF 393) | GI50 (SF-539) | GI50 (SK-MEL-28) | GI50 (SK-OV-3) | GI50 (SNB-19) | GI50 (SR) | GI50 (T47D) | GI50 (UACC-257)
O=[N+]([O-])c1ccc2ncccc2c1CCc1c([N+](=O)[O-])ccc2ncccc12 | > 100 µM (inactive) | > 100 µM (inactive) | > 100 µM (inactive) | > 100 µM (inactive) | > 100 µM (inactive) | > 100 µM (inactive) | > 100 µM (inactive) | > 100 µM (inactive) | > 100 µM (inactive) | > 100 µM (inactive) | > 100 µM (inactive) | > 100 µM (inactive) | > 100 µM (inactive) | > 100 µM (inactive) | > 100 µM (inactive) | > 100 µM (inactive) | > 100 µM (inactive) | > 100 µM (inactive) | > 100 µM (inactive) | > 100 µM (inactive)
COc1cc2c(c(OC)c1OC)-c1ccc(SC)c(=O)cc1C(NC(=O)c1ccccc1)CC2 (stereo not given) | < 0.01 µM (active) | < 0.01 µM (active) | < 0.01 µM (active) | < 0.01 µM (active) | < 0.01 µM (active) | < 0.01 µM (active) | < 0.01 µM (active) | < 0.01 µM (active) | 1.45 µM (inactive) | 0.303 µM (active) | < 0.01 µM (active) | < 0.01 µM (active) | 0.0444 µM (active) | 0.0118 µM (active) | 0.305 µM (active) | 0.027 µM (active) | < 0.01 µM (active) | < 0.0137 µM (active) | 86.3 µM (inactive) | 0.526 µM (active)
CC#CC(=O)SCCNC(=O)CC | > 10 µM (inactive) | > 10 µM (inactive) | 3.05 µM (inactive) | > 10 µM (inactive) | > 10 µM (inactive) | > 5.38 µM (inactive) | 3.31 µM (inactive) | 6.07 µM (inactive) | 4.48 µM (inactive) | > 10 µM (inactive) | > 10 µM (inactive) | > 5.15 µM (inactive) | 4.53 µM (inactive) | 9.02 µM (inactive) | > 8.71 µM (inactive) | > 10 µM (inactive) | > 10 µM (inactive) | > 4.79 µM (inactive) | > 6.5 µM (inactive) | > 10 µM (inactive)
C[C@H](CCC(=O)O[C@@H]1CC[C@@]2(C)C(CC[C@H]3[C@@H]4CC[C@H]([C@H](C)CCc5nc6ccccc6[nH]5)[C@@]4(C)CC[C@@H]32)C1)[C@H]1CC[C@H]2[C@@H]3CCC4C[C@H](O)CC[C@]4(C)[C@H]3CC[C@]12C (stereo not given in full) | > 100 µM (inactive) | > 31.3 µM (inactive) | > 100 µM (inactive) | > 57.5 µM (inactive) | 1.33 µM (inactive) | > 100 µM (inactive) | 3.95 µM (inactive) | > 100 µM (inactive) | 0.501 µM (active) | > 100 µM (inactive) | 20.2 µM (inactive) | > 100 µM (inactive) | > 100 µM (inactive) | > 100 µM (inactive) | > 100 µM (inactive) | > 81.5 µM (inactive) | 5.48 µM (inactive) | > 100 µM (inactive) | 5.04 µM (inactive) | > 100 µM (inactive)
CC1(C)CCCCCC(O)C(O)CCC(C)(C)C1=O (stereo not given) | > 100 µM (inactive) | > 100 µM (inactive) | > 100 µM (inactive) | > 100 µM (inactive) | > 100 µM (inactive) | > 100 µM (inactive) | > 100 µM (inactive) | > 100 µM (inactive) | > 100 µM (inactive) | > 100 µM (inactive) | > 100 µM (inactive) | > 100 µM (inactive) | > 100 µM (inactive) | > 100 µM (inactive) | > 100 µM (inactive) | > 100 µM (inactive) | > 100 µM (inactive) | > 100 µM (inactive) | > 100 µM (inactive) | > 100 µM (inactive)
O=C(NCCc1ccccn1)c1ccc2cc(C(=O)N3CC(CCl)c4ccc([N+](=O)[O-])cc43)[nH]c2c1 (stereo not given) | > 72.9 µM (inactive) | > 24.2 µM (inactive) | > 100 µM (inactive) | > 100 µM (inactive) | 53.6 µM (inactive) | > 100 µM (inactive) | > 100 µM (inactive) | > 100 µM (inactive) | 4.31 µM (inactive) | 97.9 µM (inactive) | 9.12 µM (inactive) | > 100 µM (inactive) | 7.66 µM (inactive) | > 43.4 µM (inactive) | > 100 µM (inactive) | 10.6 µM (inactive) | 12.1 µM (inactive) | > 100 µM (inactive) | > 100 µM (inactive) | > 46.3 µM (inactive)
CC(C)=CCCC(C)C1=C(O)C(=O)C(C)=CC1=O (stereo not given) | 45.5 µM (inactive) | 5.89 µM (inactive) | 0.614 µM (active) | 16.3 µM (inactive) | 15.6 µM (inactive) | 0.336 µM (active) | 3.66 µM (inactive) | 5.78 µM (inactive) | 6.41 µM (inactive) | 16.4 µM (inactive) | 18.1 µM (inactive) | 0.838 µM (active) | 4.74 µM (inactive) | 19.6 µM (inactive) | 4.24 µM (inactive) | 28.1 µM (inactive) | 38.1 µM (inactive) | 1.29 µM (inactive) | 2.07 µM (inactive) | 9.12 µM (inactive)
N#Cc1[nH]c(=O)n(-c2ccc(Cl)cc2)c1N | > 10 µM (inactive) | 0.00637 µM (active) | > 10 µM (inactive) | > 10 µM (inactive) | > 10 µM (inactive) | > 10 µM (inactive) | > 10 µM (inactive) | > 10 µM (inactive) | > 10 µM (inactive) | > 10 µM (inactive) | > 10 µM (inactive) | > 10 µM (inactive) | > 10 µM (inactive) | > 10 µM (inactive) | > 10 µM (inactive) | > 10 µM (inactive) | > 10 µM (inactive) | > 10 µM (inactive) | > 10 µM (inactive) | > 10 µM (inactive)
CC(=O)Nc1cc2nc3n(c2cc1C)CCC3OC(C)=O (stereo not given) | > 100 µM (inactive) | > 100 µM (inactive) | > 100 µM (inactive) | > 100 µM (inactive) | > 100 µM (inactive) | > 100 µM (inactive) | > 100 µM (inactive) | > 100 µM (inactive) | > 100 µM (inactive) | > 100 µM (inactive) | > 100 µM (inactive) | > 100 µM (inactive) | > 100 µM (inactive) | > 100 µM (inactive) | > 100 µM (inactive) | > 100 µM (inactive) | > 100 µM (inactive) | > 100 µM (inactive) | > 100 µM (inactive) | > 100 µM (inactive)
Cc1cc(C)nc(NS(=O)(=O)c2ccc(NNc3c4ccccc4nc4c(C(=O)Nc5ccc(S(=O)(=O)Nc6ncccn6)cc5)cccc34)cc2)n1 | 38.7 µM (inactive) | 36.3 µM (inactive) | 22.8 µM (inactive) | 27.9 µM (inactive) | 35 µM (inactive) | 28.6 µM (inactive) | 20.7 µM (inactive) | 31.1 µM (inactive) | 33.7 µM (inactive) | 16.4 µM (inactive) | 26.2 µM (inactive) | 29.9 µM (inactive) | 35.3 µM (inactive) | 27 µM (inactive) | 29.5 µM (inactive) | 31.5 µM (inactive) | 34.6 µM (inactive) | 8.41 µM (inactive) | 26.1 µM (inactive) | 33.7 µM (inactive)

Reference: ChEMBL document CHEMBL1201862, “PubChem BioAssay data set” (2004)
